The values below come from the supplement of paper PMC8967900.
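Note: ALL cell lines in 384-well plates, five doses spanning 10,000-fold, each plate scaled between vehicle and 100 µmol/L benzalkonium chloride controls, sDSS an adapted area-under-curve metric.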

The first experiment deals with REH. The experiment can be described thus: selective drug sensitivity score (sDSS, relative to normal bone marrow) (sDSS (score)); higher = more potent and effective on the cell line relative to normal bone marrow cells. The following applies: 72 h.
Take `Nc1nc2cc(-c3ccc4ncc(C(=O)N5CCOCC5)n4c3)ccc2o1` [Serabelisib] (top concentration 10000 nM): the “selective drug sensitivity score” value was 0.76.
For the molecule `COc1cccc(-c2ccc(NC(=O)C3=C(C(=O)O)CCC3)c(F)c2)c1` [Vidofludimus] (top concentration 10000 nM), the “selective drug sensitivity score” value was 8.9.
Still for that read-out and setting: the value for `Cc1cccc(-c2nn3c(c2-c2ccnc4ccc(C(N)=O)cc24)CCC3)n1` [Galunisertib] (top concentration 1000 nM) was 0; that for `COc1cc2c(N3CCN(C(=O)Nc4ccc(OC(C)C)cc4)CC3)ncnc2cc1OCCCN1CCCCC1` [Tandutinib] (top concentration 1000 nM) was 0.
On the same count and under the same terms, the value for `Cc1c(F)cc(C(=O)NC2CC2)cc1-c1ccc(C(=O)NCC(C)(C)C)cn1` [Losmapimod] (top concentration 10000 nM) was -0.18; that for `Nc1nc(N)c2nc(-c3cccc(O)c3)c(-c3cccc(O)c3)nc2n1` [TG100-115] (top concentration 10000 nM) was 5.1; that for `C[C@]12CC[C@@H]3c4ccc(O)cc4C[C@@H](CCCCCCCCC[S+]([O-])CCCC(F)(F)C(F)(F)F)[C@H]3[C@@H]1CC[C@@H]2O` (stereo not given in full) [Fulvestrant] (top concentration 1000 nM) was 0.2.
Still for that read-out and setting: the value for `O=C(Nc1cccnc1)N1CCC(Cc2cccc(Oc3ccc(C(F)(F)F)cn3)c2)CC1` [PF-3845] (top concentration 10000 nM) was 2.96.
As to `COc1cc2c(cc1OCCCN1CCCC1)N=C(N)C21CCC1` [A-366] (top concentration 25000 nM), the “selective drug sensitivity score” value came out at 0.36.
On the same count and under the same terms, the result for `Oc1ncnc2[nH]ncc12` [Allopurinol] (top concentration 10000 nM) reads -0.64; that for `CC(C)n1cnc2c(NCCc3ccc(O)cc3)nc(-c3csc4ccccc34)nc21` [StemRegenin_1] (top concentration 10000 nM), 1.8.
The same measure, in the same setting: the result for `C#Cc1cccc(Nc2ncnc3cc4c(cc23)OCCOCCOCCO4)c1` [Icotinib] (top concentration 10000 nM) reads 0; that for `CN[C@@H](C)C(=O)N[C@H]1CN(C(=O)CC(C)C)CC[C@H]2CC[C@@H](C(=O)NC(c3ccccc3)c3ccccc3)N2C1=O` [AT-406] (top concentration 10000 nM), 5.74; that for `CC(C)(O)CC(=O)NCCn1ccc2ncnc(Nc3ccc(Oc4cccc(C(F)(F)F)c4)c(Cl)c3)c21` [TAK-285] (top concentration 2500 nM), 0.1.
The same measure, in the same setting: the result for `COc1cc(C)[nH]c(=O)c1CNC(=O)c1c(C)n([C@H](C)C2CCOCC2)c2ccccc12` [CPI-360] (top concentration 10000 nM) reads 0; that for `Cc1cc2c(C(=O)NC[C@H](C)c3ccccc3)c(O)c(O)cc2c(O)c1-c1c(C)cc2c(C(=O)NC[C@H](C)c3ccccc3)c(O)c(O)cc2c1O` [Sabutoclax] (top concentration 25000 nM), 17.5; that for `CC(C)(C)C[C@@H]1N[C@@H](C(=O)N[C@H]2CC[C@H](O)CC2)[C@H](c2cccc(Cl)c2F)[C@]12C(=O)Nc1cc(Cl)ccc12` (top concentration 10000 nM), 3.56.
Take `C[C@@H]1C[C@H]2[C@@H]3CCC4=CC(=O)C=C[C@]4(C)[C@@]3(F)[C@@H](O)C[C@]2(C)[C@@]1(O)C(=O)CO` [Dexamethasone] (top concentration 10000 nM): the “selective drug sensitivity score” value is -1.52.

For a further experiment, the system named is SEM cells. The description is as above. Particulars: 72 h.
With `Nc1nc2cc(-c3ccc4ncc(C(=O)N5CCOCC5)n4c3)ccc2o1` [Serabelisib] (top concentration 10000 nM), the “selective drug sensitivity score” value came out at 1.56.
Same read-out and setting: the value for `COc1cccc(-c2ccc(NC(=O)C3=C(C(=O)O)CCC3)c(F)c2)c1` [Vidofludimus] (top concentration 10000 nM) was 5.6.
On the same count and under the same terms, the value for `Cc1cccc(-c2nn3c(c2-c2ccnc4ccc(C(N)=O)cc24)CCC3)n1` [Galunisertib] (top concentration 1000 nM) was 0.1; that for `COc1cc2c(N3CCN(C(=O)Nc4ccc(OC(C)C)cc4)CC3)ncnc2cc1OCCCN1CCCCC1` [Tandutinib] (top concentration 1000 nM) was 4.2; that for `Cc1c(F)cc(C(=O)NC2CC2)cc1-c1ccc(C(=O)NCC(C)(C)C)cn1` [Losmapimod] (top concentration 10000 nM) was -0.18.
Consider `Nc1nc(N)c2nc(-c3cccc(O)c3)c(-c3cccc(O)c3)nc2n1` [TG100-115] (top concentration 10000 nM), for which the “selective drug sensitivity score” value was 0.7.
Still for that read-out and setting: the value for `C[C@]12CC[C@@H]3c4ccc(O)cc4C[C@@H](CCCCCCCCC[S+]([O-])CCCC(F)(F)C(F)(F)F)[C@H]3[C@@H]1CC[C@@H]2O` (stereo not given in full) [Fulvestrant] (top concentration 1000 nM) was 0; that for `O=C(Nc1cccnc1)N1CCC(Cc2cccc(Oc3ccc(C(F)(F)F)cn3)c2)CC1` [PF-3845] (top concentration 10000 nM) was 0.96.
Same read-out and setting: the result for `COc1cc2c(cc1OCCCN1CCCC1)N=C(N)C21CCC1` [A-366] (top concentration 25000 nM) reads 0.46; that for `Oc1ncnc2[nH]ncc12` [Allopurinol] (top concentration 10000 nM), -0.54.
For the molecule `CC(C)n1cnc2c(NCCc3ccc(O)cc3)nc(-c3csc4ccccc34)nc21` [StemRegenin_1] (top concentration 10000 nM), the “selective drug sensitivity score” value is -0.5.
Same read-out and setting: the value for `C#Cc1cccc(Nc2ncnc3cc4c(cc23)OCCOCCOCCO4)c1` [Icotinib] (top concentration 10000 nM) was 3; that for `CN[C@@H](C)C(=O)N[C@H]1CN(C(=O)CC(C)C)CC[C@H]2CC[C@@H](C(=O)NC(c3ccccc3)c3ccccc3)N2C1=O` [AT-406] (top concentration 10000 nM) was -1.26.
The same measure, in the same setting: the value for `CC(C)(O)CC(=O)NCCn1ccc2ncnc(Nc3ccc(Oc4cccc(C(F)(F)F)c4)c(Cl)c3)c21` [TAK-285] (top concentration 2500 nM) was 0; that for `COc1cc(C)[nH]c(=O)c1CNC(=O)c1c(C)n([C@H](C)C2CCOCC2)c2ccccc12` [CPI-360] (top concentration 10000 nM) was 0; that for `Cc1cc2c(C(=O)NC[C@H](C)c3ccccc3)c(O)c(O)cc2c(O)c1-c1c(C)cc2c(C(=O)NC[C@H](C)c3ccccc3)c(O)c(O)cc2c1O` [Sabutoclax] (top concentration 25000 nM) was 10.4.
On the same count and under the same terms, the result for `CC(C)(C)C[C@@H]1N[C@@H](C(=O)N[C@H]2CC[C@H](O)CC2)[C@H](c2cccc(Cl)c2F)[C@]12C(=O)Nc1cc(Cl)ccc12` (top concentration 10000 nM) reads -1.94.
Regarding `C[C@@H]1C[C@H]2[C@@H]3CCC4=CC(=O)C=C[C@]4(C)[C@@]3(F)[C@@H](O)C[C@]2(C)[C@@]1(O)C(=O)CO` [Dexamethasone] (top concentration 10000 nM), the “selective drug sensitivity score” value turned out to be 10.9.

In a further experiment the test system is SUP-B15. The description is as above. Particulars: 72 h.
In the case of `Nc1nc2cc(-c3ccc4ncc(C(=O)N5CCOCC5)n4c3)ccc2o1` [Serabelisib] (top concentration 10000 nM), the “selective drug sensitivity score” value stood at 1.26.
The same measure, in the same setting: the value for `COc1cccc(-c2ccc(NC(=O)C3=C(C(=O)O)CCC3)c(F)c2)c1` [Vidofludimus] (top concentration 10000 nM) was 6; that for `Cc1cccc(-c2nn3c(c2-c2ccnc4ccc(C(N)=O)cc24)CCC3)n1` [Galunisertib] (top concentration 1000 nM) was 0; that for `COc1cc2c(N3CCN(C(=O)Nc4ccc(OC(C)C)cc4)CC3)ncnc2cc1OCCCN1CCCCC1` [Tandutinib] (top concentration 1000 nM) was 0.5.
`Cc1c(F)cc(C(=O)NC2CC2)cc1-c1ccc(C(=O)NCC(C)(C)C)cn1` [Losmapimod] (top concentration 10000 nM): the “selective drug sensitivity score” value stood at 0.42.
The same measure, in the same setting: the value for `Nc1nc(N)c2nc(-c3cccc(O)c3)c(-c3cccc(O)c3)nc2n1` [TG100-115] (top concentration 10000 nM) was -0.3.
Take `C[C@]12CC[C@@H]3c4ccc(O)cc4C[C@@H](CCCCCCCCC[S+]([O-])CCCC(F)(F)C(F)(F)F)[C@H]3[C@@H]1CC[C@@H]2O` (stereo not given in full) [Fulvestrant] (top concentration 1000 nM): the “selective drug sensitivity score” value was 0.
Still for that read-out and setting: the value for `O=C(Nc1cccnc1)N1CCC(Cc2cccc(Oc3ccc(C(F)(F)F)cn3)c2)CC1` [PF-3845] (top concentration 10000 nM) was 3.16; that for `COc1cc2c(cc1OCCCN1CCCC1)N=C(N)C21CCC1` [A-366] (top concentration 25000 nM) was -1.14.
